The values below come from patent publication US20220143123A1, “Prevention of Pathological Coagulation in COVID-19 and other Inflammatory Conditions” (priority 2020, published 2022).

Entries after “also recorded” stand apart in the source; their conditions may differ. Read-outs that look alike come from different tables or passages of the source.

What is called bioavailability is the share of a dose that reaches the circulation, judged against a reference dose that is usually intravenous.

Data set [1] concerns Tissue Factor. Put plainly: TNF-alpha induced Tissue Factor expression in HUVEC, flow cytometry. The settings on record: TNF-alpha stimulation 48 hours. It is filed as cell-based, human. As for the experimental part:
In the experiments below, human umbilical vein endothelial cells (HUVEC) where purchased from AllCells and grown in Opti-MEM media with complete fetal calf serum. Cells were stimulated with the indicated concentrations of TNF-alpha for 48 hours and incubated with the indicated concentrations of individual components of QuadraMune™ as well as the combination. Quantification of Tissue Factor was performedby flow cytometry and expressed as mean fluorescent intensity (MFI).
Background: In flow cytometry, cells or beads pass a laser one at a time.

Data set [2] concerns lipopolysaccharide-activated macrophages. Conditions: cited from earlier work.
Data set [3] concerns nuclear factor-κB (NF-κB). The settings on record: macrophage foam cells; cited from earlier work.
Data set [4] deals with rats subjected to myocardial ischemia and reperfusion. The settings on record: 10 mg/kg intravenously then 10 mg/kg/h infusion; cited from earlier work.
The subject of data set [5] is mice with experimental colitis. Conditions: 50 and 100 mg/kg/day; cited from earlier work.
Data set [6] concerns male Sprague-Dawley rats. The settings on record: 10 mg/kg intraperitoneally at 1 and 6 h after CL2P and every 12 h; cited from earlier work.
The subject of data set [7] is C57BL6 mice. Conditions: 10 mg/kg intraperitoneally, 72 h after CL2P; cited from earlier work.
Data set [8] deals with mice. Conditions: cited from earlier work.
Data set [9] relates to mice with LPS-induced ARDS. Conditions: 10 mg/kg ip; cited from earlier work.
The test system of data set [10] is Nrf2 (+/+) primary peritoneal macrophages. Conditions: cited from earlier work.
In data set [11] the test system is LPS-challenged macrophages. Conditions: pre-incubated 6 h (0 to 50 μM), LPS 24 h; cited from earlier work.
The test system of data set [12] is BALB/c mice with LPS-induced ARDS. Conditions: cited from earlier work.
In data set [13] the test system is NK cell. Put plainly: Nanostilbene in cancer patients: NK cell activity and interferon gamma production. It is filed as in vivo, human. The settings on record: pterostilbene administered in the form of nanostilbene in cancer patients.
For data set [14] the following is noted: animal studies; cited from earlier work.
Data set [15] relates to interleukin-1, interleukin-6, interleukin-8, TNF-alpha. The settings on record: cited from earlier work.
Data set [16] has as its system human umbilical vein VECs (HUVECs). The settings on record: oxLDL 200 μg/ml; cited from earlier work.
Data set [17] relates to apoE(−/−) mice. Conditions: injection; cited from earlier work.
Data set [18] has as its system lectin-like oxLDL receptor-1 (LOX-1). Conditions: in vitro and in vivo; cited from earlier work.
The test system of data set [19] is lipopolysaccharide-induced inflammatory reactions. Conditions: cited from earlier work.
For data set [20], the system named is mice challenged with endotoxin (LPS O111:B4) or live Escherichia coli. Conditions: cited from earlier work; for concentration of IL-1α: controls 1187.0±278.64.
Where [21] appears, read: 50 mg/kg, LPS 5 mg/kg 3 days later.

On to epigallocatechin-3-gallate [EGCG], for which the “TNF-alpha induced Tissue Factor expression (mean fluorescent intensity)” value in [1] is reported as “reduces inflammation induced tissue factor expression; also recorded: reduction of TNF-alpha induced Tissue Factor expression”. Also, the “activation of nuclear factor-kappaB” value in data set [2] (electrophoretic mobility shift assay) is given as “blocked the activation of nuclear factor-kappaB”. Further, the “nitric oxide (NO) generation” value in [2] (marker of activated macrophages) is “inhibit nitric oxide (NO) generation”. Also, the “TNF-α-induced NF-κB activity” value in data set [3] is “inhibition of the TNF-α-induced nuclear factor-κB (NF-κB) activity”. Also, in data set [4], the “myocardial damage and myeloperoxidase activity” value was “reduced myocardial damage and myeloperoxidase activity”; the “plasma IL-6 and creatine phosphokinase levels” value is listed as “decreased”. For the same molecule, in data set [5], the “plasma levels of IL-10 and TGF-β1” value is “increasing the plasma levels of IL-10 and TGF-β1”; the “release of IL-6 and IL-17” value is “reduce the release of IL-6 and IL-17”. Moreover, the “hypotension (mean arterial blood pressure)” value in data set [6] was “significantly improved”. Moreover, the survival entry in data set [7] is on record as “significantly improved”. In addition, the “rescue from lethal sepsis” value in [8] (first dose 24 hours after cecal ligation and puncture) was “rescued mice from lethal sepsis”. Further, in [8] (intraperitoneal administration), the “protection against lethal endotoxemia” value is reported as “protected mice against lethal endotoxemia”. In [9], the “expression of TNF-α, IL-1β and IL-6 in lung, serum and bronchoalveolar lavage fluid” value was “significantly decreased”.
With `C[S+]([O-])CCCCN=C=S` (stereo not drawn) [sulforaphane, 1-isothiocyanato-4-(methylsulfinyl)-butane], in [1], the “TNF-alpha induced Tissue Factor expression (mean fluorescent intensity)” value is reported as “reduction of TNF-alpha induced Tissue Factor expression”. Moreover, the “TNF-alpha induced Tissue Factor expression (mean fluorescent intensity)” value in data set [1] (listed as Sulforaphane) was “reduces inflammation induced tissue factor expression”. In addition, in [10] (LPS-stimulated Nrf2 (+/+) macrophages), the HO-1 expression result is given as “significantly augmented”. For the same molecule, the “LPS-stimulated mRNA expression, protein expression and production of TNF-alpha, IL-1beta, COX-2 and iNOS” value in [10] (pretreatment, Nrf2 (+/+) macrophages) is “potently inhibited”. Moreover, in data set [11], the “expression of NO and cytokines” value is “able to prevent the expression of NO and cytokines”. For the same molecule, in [12] (50 mg/kg, ELISA), the “serum levels of IL-6 and TNF-α, nuclear factor-κB protein expression” value is listed as “significantly decreased”. In data set [12] (setting [21]), the “lactate dehydrogenase (LDH) activity” value was “significantly decreased” and the “wet-to-dry ratio of the lungs” value was “significantly decreased”. Further, the “PGE2 production, COX-2 and MMP-9 protein expression, iNOS activity” value in [12] (50 mg/kg) is “significantly inhibited”. The “Nrf2/antioxidant response element (ARE) pathway” value in data set [12] (pre-treatment) was “activated”.
As to “trans-3,5-dimethoxy-4-hydroxystilbene [pterostilbene]”, the “TNF-alpha induced Tissue Factor expression (mean fluorescent intensity)” value in data set [1] was “reduction of TNF-alpha induced Tissue Factor expression”. Further, the “TNF-alpha induced Tissue Factor expression (mean fluorescent intensity)” value in data set [1] (listed as Pterostilbene) is on record as “reduces inflammation induced tissue factor expression”. Besides, in [13], the NK cell activity result is recorded as “increased NK cell activity” and the interferon gamma production result is on record as “increased”. In addition, the bioavailability in [14] is given as 80%. Moreover, the “inhibition of inflammatory cytokines (interleukin-1, interleukin-6, interleukin-8, TNF-alpha)” value in data set [15] was “inhibit inflammatory cytokines associated with ARDS”. Also, the “protection against oxLDL-induced cell shrinkage, chromatin condensation, nuclear fragmentation, apoptosis” value in data set [16] is given as “protected against such injuries”. Moreover, in data set [17], the “number of TUNEL-positive cells in the endothelium of atherosclerotic plaque” value is on record as “strongly decreased the number of TUNEL-positive cells”. Also, the LOX-1 expression result in [18] was “inhibited the expression of lectin-like oxLDL receptor-1 (LOX-1)”.
In the case of `CC1=CC(=O)C(C(C)C)=CC1=O` [thymoquinone], the “TNF-alpha induced Tissue Factor expression (mean fluorescent intensity)” value was “reduction of TNF-alpha induced Tissue Factor expression” in data set [1] and “reduces inflammation induced tissue factor expression” in data set [1] (listed as Thymoquinone). Further, the lipopolysaccharide-induced inflammatory reactions entry in data set [19] is “suppressed effectively the lipopolysaccharide-induced inflammatory reactions”. Also, the “concentration of nitric oxide” value in [19] (marker of inflammation) is given as “reduced significantly the concentration of nitric oxide”. In addition, the “concentration of IL-1α” value in data set [20] (0.75 mg/kg dose) was 310.8 ± 70.93 pg/mL; in data set [20] (1 mg/kg group) it was 428.3 ± 71.32 pg/mL. The IL-10 levels in data set [20] (0.75 mg/kg, controls 5505.2±333.96) is 2885.0 ± 553.98 pg/mL. In addition, the “levels of TNF-α and IL-2” value in [20] (P values=0.1817 and 0.0851) is “relatively lower levels of TNF-α and IL-2”. Besides, the reduction of mortality in data set [20] (mice, sepsis) is on record as 80-90%. The “renal and hepatic biomarker profiles” value in data set [20] (mice, sepsis) is “improved both renal and hepatic biomarker profiles”.
